Columns and labels:
Assay in all cases: PathHunter β-Arrestin orphan GPCR panel
Type in all cases: cell-based
Conditions in all cases: agonist mode, 0.001 µM
[1] = target: T1, GPR142 (Homo sapiens, UniProt Q7Z601)
T1 construct: purchased DiscoveRx (PathHunter β-Arrestin orphan GPCR panel)
Text: (§1) For screening orphan GPCRs as possible targets for PGE2-G, the PathHunter® β-Arrestin assay (DiscoveRx Co., USA) was used. It monitors the activation of a GPCR by utilizing an enzyme fragment complementation assay with β-galactosidase as the functional reporter. Briefly, the enzyme is split into two complementary portions expressed as fusion proteins in the cell. The enzyme acceptor is fused to β2-arrestin, and the ProLink donor peptide is fused to the GPCR of interest. Upon GPCR stimulation, β2-arrestin is recruited to the receptor, bringing the two fragments of β-galactosidase together. This generates an active enzyme that can convert a chemiluminescent substrate, generating a signal detectable on a standard microplate reader (see manufacturer’s instructions). In total, 78 GPCRs, previously considered orphan and individually transfected into cells, were screened by DiscoveRx (Supplementary Table S1). The percentage activity given in the results is calculated using the following formula: % activity = 100% × (mean RLU of test sample - mean RLU of vehicle control)/mean RLU of vehicle control).

[2] = target: T2, GPR18 (Homo sapiens, UniProt Q14330)
T2 construct: purchased DiscoveRx (PathHunter β-Arrestin orphan GPCR panel)
Text: as §1

[3] = target: T3, GPR148 (Homo sapiens, UniProt Q8TDV2)
T3 construct: purchased DiscoveRx (PathHunter β-Arrestin orphan GPCR panel)
Text: as §1

[4] = target: T4, EBI2 (Homo sapiens, UniProt P32249)
T4 construct: purchased DiscoveRx (PathHunter β-Arrestin orphan GPCR panel)
Text: as §1

[5] = target: T5, BAI3 (Homo sapiens, UniProt O60242)
T5 construct: purchased DiscoveRx (PathHunter β-Arrestin orphan GPCR panel)
Text: as §1

[6] = target: T6, GPR151 (Homo sapiens, UniProt Q8TDV0)
T6 construct: purchased DiscoveRx (PathHunter β-Arrestin orphan GPCR panel)
Text: as §1

[7] = target: T7, GPR15 (Homo sapiens, UniProt P49685)
T7 construct: purchased DiscoveRx (PathHunter β-Arrestin orphan GPCR panel)
Text: as §1

[8] = target: T8, GPR3 (Homo sapiens, UniProt P46089)
T8 construct: purchased DiscoveRx (PathHunter β-Arrestin orphan GPCR panel)
Text: as §1

[9] = target: T9, GPR37 (Homo sapiens, UniProt O15354)
T9 construct: purchased DiscoveRx (PathHunter β-Arrestin orphan GPCR panel)
Text: as §1

[10] = target: T10, GPR132 (Homo sapiens, UniProt Q9UNW8)
T10 construct: purchased DiscoveRx (PathHunter β-Arrestin orphan GPCR panel)
Text: as §1

[11] = target: T11, BAI2 (Homo sapiens, UniProt O60241)
T11 construct: purchased DiscoveRx (PathHunter β-Arrestin orphan GPCR panel)
Text: as §1

[12] = target: T12, GPR17 (Homo sapiens, UniProt Q13304)
T12 construct: purchased DiscoveRx (PathHunter β-Arrestin orphan GPCR panel)
Text: as §1

[13] = target: T13, GPR161 (Homo sapiens, UniProt Q8N6U8)
T13 construct: purchased DiscoveRx (PathHunter β-Arrestin orphan GPCR panel)
Text: as §1

[14] = target: T14, GPR103 (Homo sapiens, UniProt Q96P65)
T14 construct: purchased DiscoveRx (PathHunter β-Arrestin orphan GPCR panel)
Text: as §1

[15] = target: T15, CMKLR2 (Homo sapiens, UniProt P46091)
T15 construct: purchased DiscoveRx (PathHunter β-Arrestin orphan GPCR panel)
Text: as §1

[16] = target: T16, GPR37L1 (Homo sapiens, UniProt O60883)
T16 construct: purchased DiscoveRx (PathHunter β-Arrestin orphan GPCR panel)
Text: as §1

[17] = target: T17, GPR27 (Homo sapiens, UniProt Q9NS67)
T17 construct: purchased DiscoveRx (PathHunter β-Arrestin orphan GPCR panel)
Text: as §1

[18] = target: T18, CCRL2 (Homo sapiens, UniProt O00421)
T18 construct: purchased DiscoveRx (PathHunter β-Arrestin orphan GPCR panel)
Text: as §1

[19] = target: T19, GPR123 (Homo sapiens, UniProt Q86SQ6)
T19 construct: purchased DiscoveRx (PathHunter β-Arrestin orphan GPCR panel)
Text: as §1

[20] = target: T20, GPR157 (Homo sapiens, UniProt Q5UAW9)
T20 construct: purchased DiscoveRx (PathHunter β-Arrestin orphan GPCR panel)
Text: as §1

[21] = target: T21, GPR31 (Homo sapiens, UniProt O00270)
T21 construct: purchased DiscoveRx (PathHunter β-Arrestin orphan GPCR panel)
Text: as §1

[22] = target: T22, GPR23 (Homo sapiens, UniProt Q99677)
T22 construct: purchased DiscoveRx (PathHunter β-Arrestin orphan GPCR panel)
Text: as §1

[23] = target: T23, GPR12 (Homo sapiens, UniProt P47775)
T23 construct: purchased DiscoveRx (PathHunter β-Arrestin orphan GPCR panel)
Text: as §1

[24] = target: T24, GPR135 (Homo sapiens, UniProt Q8IZ08)
T24 construct: purchased DiscoveRx (PathHunter β-Arrestin orphan GPCR panel)
Text: as §1

[25] = target: T25, BAI1 (Homo sapiens, UniProt O14514)
T25 construct: purchased DiscoveRx (PathHunter β-Arrestin orphan GPCR panel)
Text: as §1

[26] = target: T26, GPR152 (Homo sapiens, UniProt Q8TDT2)
T26 construct: purchased DiscoveRx (PathHunter β-Arrestin orphan GPCR panel)
Text: as §1

[27] = target: T27, GPR26 (Homo sapiens, UniProt Q8NDV2)
T27 construct: purchased DiscoveRx (PathHunter β-Arrestin orphan GPCR panel)
Text: as §1

[28] = target: T28, GPR32 (Homo sapiens, UniProt O75388)
T28 construct: purchased DiscoveRx (PathHunter β-Arrestin orphan GPCR panel)
Text: as §1

[29] = target: T29, GPR150 (Homo sapiens, UniProt Q8NGU9)
T29 construct: purchased DiscoveRx (PathHunter β-Arrestin orphan GPCR panel)
Text: as §1

[30] = target: T30, DARC (Homo sapiens, UniProt Q16570)
T30 construct: purchased DiscoveRx (PathHunter β-Arrestin orphan GPCR panel)
Text: as §1

[31] = target: T31, GPR20 (Homo sapiens, UniProt Q99678)
T31 construct: purchased DiscoveRx (PathHunter β-Arrestin orphan GPCR panel)
Text: as §1

[32] = target: T32, GPR162 (Homo sapiens, UniProt Q16538)
T32 construct: purchased DiscoveRx (PathHunter β-Arrestin orphan GPCR panel)
Text: as §1

[33] = target: T33, GHSR1B (Homo sapiens, UniProt Q92847)
T33 construct: purchased DiscoveRx (PathHunter β-Arrestin orphan GPCR panel)
Text: as §1

[34] = target: T34, GPR171 (Homo sapiens, UniProt O14626)
T34 construct: purchased DiscoveRx (PathHunter β-Arrestin orphan GPCR panel)
Text: as §1

[35] = target: T35, GPR173 (Homo sapiens, UniProt Q9NS66)
T35 construct: purchased DiscoveRx (PathHunter β-Arrestin orphan GPCR panel)
Text: as §1

[36] = target: T36, GPR107 (Homo sapiens, UniProt Q5VW38)
T36 construct: purchased DiscoveRx (PathHunter β-Arrestin orphan GPCR panel)
Text: as §1

[37] = target: T37, GPR101 (Homo sapiens, UniProt Q96P66)
T37 construct: purchased DiscoveRx (PathHunter β-Arrestin orphan GPCR panel)
Text: as §1

[38] = target: T38, GPR182 (Homo sapiens, UniProt O15218)
T38 construct: purchased DiscoveRx (PathHunter β-Arrestin orphan GPCR panel)
Text: as §1

[39] = target: T39, ADMR (Homo sapiens, UniProt O15218)
T39 construct: purchased DiscoveRx (PathHunter β-Arrestin orphan GPCR panel)
Text: as §1

[40] = target: T40, GPR25 (Homo sapiens, UniProt O00155)
T40 construct: purchased DiscoveRx (PathHunter β-Arrestin orphan GPCR panel)
Text: as §1

[41] = target: T41, GPR139 (Homo sapiens, UniProt Q6DWJ6)
T41 construct: purchased DiscoveRx (PathHunter β-Arrestin orphan GPCR panel)
Text: as §1

[42] = target: T42, GPR149 (Homo sapiens, UniProt Q86SP6)
T42 construct: purchased DiscoveRx (PathHunter β-Arrestin orphan GPCR panel)
Text: as §1

[43] = target: T43, GPR30 (Homo sapiens, UniProt Q99527)
T43 construct: purchased DiscoveRx (PathHunter β-Arrestin orphan GPCR panel)
Text: as §1

[44] = target: T44, GPR176 (Homo sapiens, UniProt Q14439)
T44 construct: purchased DiscoveRx (PathHunter β-Arrestin orphan GPCR panel)
Text: as §1

[45] = target: T45, GPR141 (Homo sapiens, UniProt Q7Z602)
T45 construct: purchased DiscoveRx (PathHunter β-Arrestin orphan GPCR panel)
Text: as §1

[46] = target: T46, GPR143 (Homo sapiens, UniProt P51810)
T46 construct: purchased DiscoveRx (PathHunter β-Arrestin orphan GPCR panel)
Text: as §1

[47] = target: T47, GPR146 (Homo sapiens, UniProt Q96CH1)
T47 construct: purchased DiscoveRx (PathHunter β-Arrestin orphan GPCR panel)
Text: as §1

T34 sequence (O14626 whole entry): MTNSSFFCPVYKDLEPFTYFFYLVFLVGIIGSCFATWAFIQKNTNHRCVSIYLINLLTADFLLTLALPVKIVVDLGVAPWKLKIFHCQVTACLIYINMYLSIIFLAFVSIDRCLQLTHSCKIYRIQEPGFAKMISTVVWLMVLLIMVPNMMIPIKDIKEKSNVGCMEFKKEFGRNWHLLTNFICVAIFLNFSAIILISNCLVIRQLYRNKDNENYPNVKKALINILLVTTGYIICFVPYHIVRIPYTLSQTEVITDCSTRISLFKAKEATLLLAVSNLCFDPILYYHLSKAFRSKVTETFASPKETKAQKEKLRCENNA
T33 sequence (Q92847 1-289 isoform Q92847-2): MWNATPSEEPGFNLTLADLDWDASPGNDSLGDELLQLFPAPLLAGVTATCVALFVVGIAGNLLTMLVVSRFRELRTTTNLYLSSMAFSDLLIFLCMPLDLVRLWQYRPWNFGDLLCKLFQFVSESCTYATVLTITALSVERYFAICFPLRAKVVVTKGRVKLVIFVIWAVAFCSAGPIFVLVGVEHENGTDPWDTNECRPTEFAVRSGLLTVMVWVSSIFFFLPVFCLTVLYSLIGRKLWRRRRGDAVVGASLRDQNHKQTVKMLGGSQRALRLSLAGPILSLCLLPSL
T31 sequence (Q99678 whole entry): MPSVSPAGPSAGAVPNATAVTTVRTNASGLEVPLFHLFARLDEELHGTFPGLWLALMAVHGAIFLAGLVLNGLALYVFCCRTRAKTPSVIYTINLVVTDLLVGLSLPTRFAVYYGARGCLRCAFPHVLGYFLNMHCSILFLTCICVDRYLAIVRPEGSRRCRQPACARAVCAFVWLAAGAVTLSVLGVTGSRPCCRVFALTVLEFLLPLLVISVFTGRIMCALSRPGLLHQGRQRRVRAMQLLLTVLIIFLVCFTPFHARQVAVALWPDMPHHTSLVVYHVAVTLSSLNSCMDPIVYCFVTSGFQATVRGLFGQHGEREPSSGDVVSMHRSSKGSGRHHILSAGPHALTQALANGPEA
T21 sequence (O00270 whole entry): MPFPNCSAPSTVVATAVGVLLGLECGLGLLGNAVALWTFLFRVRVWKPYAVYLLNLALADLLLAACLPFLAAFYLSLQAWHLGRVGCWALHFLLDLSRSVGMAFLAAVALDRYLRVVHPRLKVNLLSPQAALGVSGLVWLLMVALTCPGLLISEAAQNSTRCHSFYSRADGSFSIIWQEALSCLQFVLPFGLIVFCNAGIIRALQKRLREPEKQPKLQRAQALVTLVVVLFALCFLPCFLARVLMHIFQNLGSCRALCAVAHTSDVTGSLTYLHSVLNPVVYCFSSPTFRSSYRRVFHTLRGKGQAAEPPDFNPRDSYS
T3 sequence (Q8TDV2 whole entry): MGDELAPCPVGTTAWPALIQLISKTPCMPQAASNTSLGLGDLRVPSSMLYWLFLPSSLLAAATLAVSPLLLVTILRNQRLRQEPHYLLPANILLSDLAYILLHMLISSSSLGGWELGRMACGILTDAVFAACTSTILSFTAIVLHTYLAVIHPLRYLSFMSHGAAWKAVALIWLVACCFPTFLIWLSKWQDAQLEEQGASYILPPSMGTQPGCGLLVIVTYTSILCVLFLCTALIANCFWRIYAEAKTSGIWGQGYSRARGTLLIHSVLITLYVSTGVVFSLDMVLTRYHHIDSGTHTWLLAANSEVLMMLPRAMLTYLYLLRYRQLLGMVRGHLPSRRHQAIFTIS
T19 sequence (Q86SQ6 whole entry): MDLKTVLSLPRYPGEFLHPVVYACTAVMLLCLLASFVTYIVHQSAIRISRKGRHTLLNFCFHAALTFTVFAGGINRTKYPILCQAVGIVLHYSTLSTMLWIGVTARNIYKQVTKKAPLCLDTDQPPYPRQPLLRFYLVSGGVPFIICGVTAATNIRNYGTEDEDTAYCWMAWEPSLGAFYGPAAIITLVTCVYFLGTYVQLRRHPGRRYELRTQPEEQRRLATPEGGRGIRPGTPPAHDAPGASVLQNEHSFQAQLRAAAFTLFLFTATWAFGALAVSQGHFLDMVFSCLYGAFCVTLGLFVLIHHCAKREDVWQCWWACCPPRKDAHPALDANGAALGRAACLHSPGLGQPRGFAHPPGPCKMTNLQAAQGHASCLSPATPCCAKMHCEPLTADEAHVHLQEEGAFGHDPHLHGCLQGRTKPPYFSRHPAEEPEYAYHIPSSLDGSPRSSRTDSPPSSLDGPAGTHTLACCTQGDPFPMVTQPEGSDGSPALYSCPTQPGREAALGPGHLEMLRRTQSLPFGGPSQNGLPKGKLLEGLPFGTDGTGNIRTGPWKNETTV
T2 sequence (Q14330 whole entry): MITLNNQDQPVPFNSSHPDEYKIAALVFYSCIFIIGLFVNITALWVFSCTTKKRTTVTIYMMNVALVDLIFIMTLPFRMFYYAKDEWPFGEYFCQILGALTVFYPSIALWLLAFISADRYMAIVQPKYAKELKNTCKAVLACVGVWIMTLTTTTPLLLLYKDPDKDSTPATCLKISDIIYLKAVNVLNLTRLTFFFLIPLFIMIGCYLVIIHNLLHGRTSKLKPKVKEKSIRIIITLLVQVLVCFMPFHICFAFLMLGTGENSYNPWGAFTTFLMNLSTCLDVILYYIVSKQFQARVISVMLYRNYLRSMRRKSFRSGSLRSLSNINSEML
T30 sequence (Q16570 whole entry): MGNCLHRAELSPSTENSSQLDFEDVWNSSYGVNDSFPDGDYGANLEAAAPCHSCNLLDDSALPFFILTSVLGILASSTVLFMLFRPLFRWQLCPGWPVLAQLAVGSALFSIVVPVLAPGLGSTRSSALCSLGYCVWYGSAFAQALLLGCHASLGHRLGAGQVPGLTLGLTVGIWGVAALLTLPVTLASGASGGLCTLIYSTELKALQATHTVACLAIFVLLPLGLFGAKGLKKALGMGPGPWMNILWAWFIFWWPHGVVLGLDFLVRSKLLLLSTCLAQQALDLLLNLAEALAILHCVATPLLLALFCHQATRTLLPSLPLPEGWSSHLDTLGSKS
T1 sequence (Q7Z601 whole entry): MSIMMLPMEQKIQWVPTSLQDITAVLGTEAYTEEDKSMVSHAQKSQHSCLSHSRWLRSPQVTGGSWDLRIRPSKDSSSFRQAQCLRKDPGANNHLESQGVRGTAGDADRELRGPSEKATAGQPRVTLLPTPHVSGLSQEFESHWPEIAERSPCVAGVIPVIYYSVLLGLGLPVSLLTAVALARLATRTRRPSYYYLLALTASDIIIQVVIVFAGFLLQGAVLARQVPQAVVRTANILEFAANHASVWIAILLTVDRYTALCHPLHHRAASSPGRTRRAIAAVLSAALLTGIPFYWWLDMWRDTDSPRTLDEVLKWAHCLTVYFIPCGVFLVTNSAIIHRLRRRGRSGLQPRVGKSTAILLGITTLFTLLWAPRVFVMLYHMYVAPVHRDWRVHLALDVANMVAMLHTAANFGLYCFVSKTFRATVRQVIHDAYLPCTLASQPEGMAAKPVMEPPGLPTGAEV
T25 sequence (O14514 31-1584): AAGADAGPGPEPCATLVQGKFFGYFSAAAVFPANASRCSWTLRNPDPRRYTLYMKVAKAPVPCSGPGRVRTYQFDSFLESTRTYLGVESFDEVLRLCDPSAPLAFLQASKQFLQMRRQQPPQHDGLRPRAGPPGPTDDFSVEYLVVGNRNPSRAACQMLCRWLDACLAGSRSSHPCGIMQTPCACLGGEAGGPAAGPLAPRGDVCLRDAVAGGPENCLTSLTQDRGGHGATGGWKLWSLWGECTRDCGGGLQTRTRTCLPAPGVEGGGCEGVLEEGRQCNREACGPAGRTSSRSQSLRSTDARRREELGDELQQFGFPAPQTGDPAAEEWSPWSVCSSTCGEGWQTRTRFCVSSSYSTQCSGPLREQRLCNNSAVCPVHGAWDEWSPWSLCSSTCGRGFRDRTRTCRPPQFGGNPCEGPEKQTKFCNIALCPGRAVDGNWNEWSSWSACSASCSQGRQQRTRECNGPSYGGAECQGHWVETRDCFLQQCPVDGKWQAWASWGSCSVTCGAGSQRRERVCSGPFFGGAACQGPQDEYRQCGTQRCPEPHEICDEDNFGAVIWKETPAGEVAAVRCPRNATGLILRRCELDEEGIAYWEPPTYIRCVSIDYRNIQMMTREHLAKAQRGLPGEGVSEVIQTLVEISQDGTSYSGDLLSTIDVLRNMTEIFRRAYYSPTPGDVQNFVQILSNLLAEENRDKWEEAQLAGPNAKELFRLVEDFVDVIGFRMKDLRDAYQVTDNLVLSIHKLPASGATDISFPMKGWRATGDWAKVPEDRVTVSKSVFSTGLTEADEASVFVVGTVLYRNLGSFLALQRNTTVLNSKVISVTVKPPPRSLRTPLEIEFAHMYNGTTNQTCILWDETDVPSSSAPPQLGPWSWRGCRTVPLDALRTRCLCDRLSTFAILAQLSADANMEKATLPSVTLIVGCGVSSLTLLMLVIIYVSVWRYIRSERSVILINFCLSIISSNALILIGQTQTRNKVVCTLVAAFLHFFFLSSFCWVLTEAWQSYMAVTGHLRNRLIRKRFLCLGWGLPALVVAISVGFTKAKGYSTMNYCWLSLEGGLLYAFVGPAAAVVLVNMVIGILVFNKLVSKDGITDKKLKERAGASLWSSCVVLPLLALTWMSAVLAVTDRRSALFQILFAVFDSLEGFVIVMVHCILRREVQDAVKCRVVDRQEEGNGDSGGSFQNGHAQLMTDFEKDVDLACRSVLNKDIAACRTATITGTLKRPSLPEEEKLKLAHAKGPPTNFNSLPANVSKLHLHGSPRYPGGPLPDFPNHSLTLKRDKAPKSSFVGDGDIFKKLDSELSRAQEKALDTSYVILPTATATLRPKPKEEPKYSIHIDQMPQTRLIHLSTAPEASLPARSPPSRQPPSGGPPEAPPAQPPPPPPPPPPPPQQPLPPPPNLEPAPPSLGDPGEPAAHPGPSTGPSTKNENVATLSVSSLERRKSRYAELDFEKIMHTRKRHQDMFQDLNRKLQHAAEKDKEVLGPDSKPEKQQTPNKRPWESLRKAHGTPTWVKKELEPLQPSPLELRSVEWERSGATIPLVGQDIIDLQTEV

Mean RLU [1]: 2660 RLU | Mean RLU [2]: 520 RLU | Mean RLU [3]: 3640 RLU | Mean RLU [4]: 46540 RLU | Mean RLU [5]: 21960 RLU | Mean RLU [6]: 57420 RLU | Mean RLU [7]: 9440 RLU | Mean RLU [8]: 1524920 RLU | Mean RLU [9]: 822100 RLU | Mean RLU [10]: 620480 RLU | Mean RLU [11]: 15400 RLU | Mean RLU [12]: 805440 RLU | Mean RLU [13]: 20300 RLU | Mean RLU [14]: 56020 RLU | Mean RLU [15]: 17240 RLU | Mean RLU [16]: 36440 RLU | Mean RLU [17]: 219760 RLU | Mean RLU [18]: 8400 RLU | Mean RLU [19]: 1221720 RLU | Mean RLU [20]: 356620 RLU | Mean RLU [21]: 7680 RLU | Mean RLU [22]: 990600 RLU | Mean RLU [23]: 680 RLU | Mean RLU [24]: 16680 RLU | Mean RLU [25]: 864280 RLU | Mean RLU [26]: 178980 RLU | Mean RLU [27]: 2200 RLU | Mean RLU [28]: 129240 RLU | Mean RLU [29]: 31360 RLU | Mean RLU [30]: 105120 RLU | Mean RLU [31]: 74500 RLU | Mean RLU [32]: 26360 RLU | Mean RLU [33]: 2580 RLU | Mean RLU [34]: 4880 RLU | Mean RLU [35]: 62220 RLU | Mean RLU [36]: 304860 RLU | Mean RLU [37]: 30940 RLU | Mean RLU [38]: 899260 RLU | Mean RLU [39]: 514420 RLU | Mean RLU [40]: 6140 RLU | Mean RLU [41]: 307380 RLU | Mean RLU [42]: 29340 RLU | Mean RLU [43]: 8540 RLU | Mean RLU [44]: 380580 RLU | Mean RLU [45]: 30420 RLU | Mean RLU [46]: 91680 RLU | Mean RLU [47]: 15800 RLU
SMILES: CCCCC[C@H](O)/C=C/[C@H]1[C@H](O)CC(=O)[C@@H]1C/C=C\CCCC(=O)NC(CO)CO [PGE2-SA]
